Data on 52 compounds can be found in patent publication US20260097047A1, “Small molecule inhibitors of the ribosome biogenesis factor NVL2” (Board of Regents, The University of Texas System, priority 2023, published 2026).

The assay relates to HCT116 cells. The experiment in a line: Cell viability assay (CellTiter-Glo, 72 hours) in HCT116 human colorectal cancer cells. It counts as cell-based. As to the method: Cell culture: The HCT116 cell line was obtained from ATCC and cultured in Dulbecco's Modified Eagle's Medium (DMEM)-high glucose (Sigma Aldrich #D5796) supplemented with 10% fetal bovine serum (FBS) (Sigma-Aldrich #F2442) and 2 mM L-Glutamine (Sigma Aldrich #G7513). Cells were cultured at 37° C. in 5% CO2. The identity of all cell lines was confirmed by short tandem repeat (STR) analysis and confirmed to be mycoplasma-free using a PCR based assay (Genatlantis).
Cell viability assay: In 96-well assay plates (Corning #2903), 2,000 cells were plated per well in 100 μL of medium and allowed to adhere overnight. The next day, compounds suspended in DMSO were dispensed to the assayed wells using a D300e Digital Dispenser (Tecan). All wells were normalized to 0.5% DMSO. 72 hours after incubation at 37° C. in 5% CO2, cell viability was assayed using an ATP-based luminescent viability assay, CellTiter-Glo (Promega #G8462). Substrate was mixed 1:1 with phosphate-buffered saline (PBS) supplemented with 1% Triton X-100, and 40 μL of this mixture was added to the assay wells. Plates were shaken on a microplate shaker for 10 minutes at room temperature. Luminescence (CellTiter-Glo) was recorded using a Synergy 2 microplate reader (BioTek). In Prism 9 software (GraphPad), ten-point dose response curves were plotted with baseline-correction to the vehicle control well, and IC50 values were calculated by curve fitting using asymmetric (five parameter), least squares fit.

Where [1] appears, read: Table 3, HCT116, 72 hours, read-out: Activity.
Setting [2] is: Table 4, HCT116, 72 hours, read-out: Activity.
[3] abbreviates: Table 6, HCT116, 72 hours, read-out: Activity.
Where [4] appears, read: Table 8, analogs of scaffold drawing 43 defined by R^2, R^3, X/Y, W, read-out: Activity (IC50 class, cell viability assay).
Setting [5] is: Table 5, HCT116, 72 hours, read-out: Activity.
The mark [6] stands for this setting: Table 9, HCT116, 72 hours, read-out: Activity.
Setting [7] is: Homo sapiens, HCT-116, Table 6, HCT116, 72 hours, read-out: Activity.
[8] abbreviates: Homo sapiens, HCT-116, Table 5, HCT116, 72 hours, read-out: Activity.
Where [9] appears, read: Table 7, cell viability assay, CellTiter-Glo, 72 hours, scaffold drawing 42 with R^2, R^3, X/Y, Z, read-out: Activity.

Like-named read-outs stand apart in the source and are kept apart here.

As to `CC#CCN1C(=O)c2ccccc2Sc2cc(NC(=O)N[C@H]3C[C@@H](O)C3)cnc21` [Table 3: —CH2CCMe; cis-3-OH-cBu; CH/N], the IC50 under setting [1] was under 500 nM.
Consider `CC#CCN1C(=O)c2ccccc2Sc2cc(NC(=S)N[C@H]3C[C@H](O)C3)cnc21` [Table 4: —CH2CCMe; trans-3-OH-cBu; N], for which the IC50 under setting [2] is under 500 nM.
For `O=C1c2ccccc2Sc2cc(NC3CC(O)C3)cnc2N1CC#CCl` (stereo not shown) [Table 6: —CH2CCCl; 3-HOcBu; CH/N; S], under setting [3], the IC50 is under 500 nM.
On to `CC#CCN1C(=O)c2ccc(Cl)cc2Sc2cc(NC(=O)C3CCOC3)ccc21` (stereo not shown), for which the IC50 under setting [4] was under 500 nM.
Consider `CC#CCN1C(=O)c2cc(F)ccc2Sc2cc(NC(=O)C3CCOC3)cnc21` (stereo not shown) [—CH2CCMe; tetrahydrofuran-3-yl; CH/CF; N], for which the IC50 under setting [4] is under 500 nM.
`CC#CCN1C(=O)c2ccc(F)cc2Sc2cc(NC(=O)c3ccc(OCF)cc3)ccc21` [—CH2CCMe; 4-FH2COPh; CF/CH; CH]: the IC50 under setting [4] was under 500 nM.
Take `Cc1ccc(F)c(Nc2cnc3c(c2)Sc2ccccc2C(=O)N3CC#CCl)n1`: the IC50 under setting [5] was under 500 nM.
As to `CC#CCN1C(=O)c2ccc(C#N)cc2Sc2cc(NC(=O)C=CCOC)ccc21` [—CH2CCMe; CH—═CHCH2OMe; CCN/CH; CH], the IC50 under setting [4] is under 500 nM.
Turning to `CC#CCN1C(=O)c2ccccc2C(C)c2cc(NC(=O)C(C)CCOC)ccc21` (stereo not shown) [Table 9: —CH2CCMe; MeO(CH2)2CHMe-; CHMe], the IC50 under setting [6] is under 500 nM.
Take `C#CCN1C(=O)c2ccc(Cl)cc2Sc2cc(NC(=O)C3CC4(CC(=NO)C4)C3)ccc21` (stereo not shown): the IC50 under setting [4] was under 500 nM.
On the same count and under the same terms, with `CC#CCN1C(=O)c2ccc(Cl)cc2Sc2cc(NC(=O)C3CCCO3)ccc21` (stereo not shown) the figure was under 500 nM.
For `CC#CCN1C(=O)c2ccccc2Sc2cc(NC3COC3)ccc21` [Table 6: —CH2CCMe; oxetan-3-yl; CH/CH; S, 10-(But-2-yn-1-yl)-7-(oxetan-3-ylamino)dibenzo[b,f][1,4]thiazepin-11 (10H)-one], under setting [7], the IC50 was under 500 nM.
On to `CC#CCN1C(=O)c2cc(F)ccc2Sc2cc(NC(=O)[C@@H]3C[C@H]3CO)ccc21` (relative stereo) [—CH2CCMe; trans-2-HOCH2-cPr; CH/CF; CH], for which the IC50 under setting [4] was under 500 nM.
On to `COC1CC(Nc2ccc3c(c2)Sc2ccccc2C(=O)N3CC#CCl)C1` (stereo not shown) [Table 6: —CH2CCCl; 3-MeOcBu; CH/CH; S], for which the IC50 under setting [3] is under 500 nM.
Regarding `O=C(Nc1ccc2c(c1)Sc1cc(Cl)ccc1C(=O)N2CC#CCl)C1CC1CO` (racemic) [—CH2CCCl; trans-2-HOCH2-cPr; CCl/CH; CH], the IC50 under setting [4] is under 500 nM.
As for `C#CCN1C(=O)c2ccccc2Sc2cc(NC3CC(COC)C3)ccc21` (stereo not shown) [Table 6: —CH2CCH; 3-MeOCH2-cBu; CH/CH; S], under setting [3], the IC50 was under 500 nM.
As for `CON=C1CC2(C1)CC(C(=O)Nc1ccc3c(c1)Sc1cc(Cl)ccc1C(=O)N3CC#CCl)C2` (stereo not shown), the IC50 under setting [4] is under 500 nM.
Consider `C#CCOCCN1C(=O)c2ccccc2Sc2cc(NC(=O)NC3CCCCC3)ccc21` [Table 3: —(CH2)2OCH2CCH; cHex; CH/CH, 1-Cyclohexyl-3-(11-oxo-10-(2-(prop-2-yn-1-yloxy)ethyl)-10,11-dihydrodibenzo[b,f][1,4]thiazepin-7-yl) urea], for which, for the setting “Homo sapiens, HCT-116, Table 3, HCT116, 72 hours, read-out: Activity”, the IC50 is under 500 nM.
For the compound `CCC/C=C/CN1C(=O)c2ccccc2Sc2cc(Nc3ncccn3)ccc21` [(E)-10-(Hex-2-en-1-yl)-7-(pyrimidin-2-ylamino)dibenzo[b,f][1,4]thiazepin-11 (10H)-one], the IC50 under setting [8] was in the range of 1000 to 5000 nM.
With `O=C(Nc1ccc2c(c1)Sc1ccccc1C(=O)N2CC#CC1CC1)C1CC2(COC2)C1`, under setting [4], the IC50 was under 500 nM.
With `CC#CCN1C(=O)c2cc(F)ccc2Sc2cc(NC(=O)C3COC3)ccc21` [—CH2CCMe; oxetan-3-yl; CH/CF; CH], the IC50 under setting [4] was under 500 nM.
As to `COCCN1C(=O)c2ccccc2Sc2cc(NC(=O)c3ccc4oc(=O)n(C)c4c3)ccc21`, the IC50 under setting [9] is 500 to 1000 nM.
On the same count and under the same terms, with `COCCN1C(=O)c2ccccc2Sc2cc(NC(=O)c3ccc(OC)cc3F)ccc21` [—(CH2)2OMe; 2-F,4-MeOPh; CH/CH; S] the figure was 500 to 1000 nM.
As to `CCC/C=C/CN1C(=O)c2ccccc2Sc2cc(Nc3cc4ccccc4cn3)ccc21` [(E)-10-(Hex-2-en-1-yl)-7-(isoquinolin-3-ylamino)dibenzo[b,f][1,4]thiazepin-11 (10H)-one], under setting [8], the IC50 is under 500 nM.
Take `COCCN1C(=O)c2ccccc2Sc2cc(NC(=O)c3ccc(F)c(OC)c3)ccc21` [—(CH2)2OMe; 3-MeO,4-FPh; CH/CH; S]: the IC50 under setting [9] lay in the range of 500 to 1000 nM.
With `C#CCN1C(=O)c2ccccc2Sc2cc(Nc3ncc(C)nc3C)cnc21`, the IC50 under setting [5] is under 500 nM.
For `CC#CCN1C(=O)c2ccc(F)cc2Sc2cc(NC(=O)c3ccc(OC)cc3)ccc21` [—CH2CCMe; 4-MeOPh; CF/CH; CH], under setting [4], the IC50 is under 500 nM.
On the same count and under the same terms, with `CC#CCN1C(=O)c2ccc(Cl)cc2Sc2cc(NC(=O)C34CC(OC)(C3)C4)cnc21` the figure was under 500 nM; with `COC12CC(C(=O)Nc3cnc4c(c3)Sc3ccccc3C(=O)N4CC#CC3CC3)(C1)C2`, under 500 nM.
As to `CC#CCN1C(=O)c2ccccc2Sc2cc(NC(=S)N3CCCCC3)cnc21` [Table 2: —CH2CCMe; piperidin-1-yl; CH; N], the IC50 (Table 2, HCT116, 72 hours, read-out: Activity) was under 500 nM.
Consider `C#CCOCCN1C(=O)c2ccc(F)cc2Sc2cc(NC(=O)c3ccc4scnc4c3)ccc21`, for which the IC50 under setting [9] is under 500 nM.
As to `CC#CCN1C(=O)c2ccccc2Sc2cc(Nc3nc(C)cnc3C)cnc21`, the IC50 under setting [5] was under 500 nM.
For the compound `COCCN1C(=O)c2ccccc2Sc2cc(NC(=O)c3ccc4ncoc4c3)ccc21`, the IC50 under setting [9] is 1000 to 5000 nM.
For `CC#CCN1C(=O)c2cc(F)ccc2Sc2cc(NC(=O)C=CCOC)cnc21` [—CH2CCMe; CH—═CHCH2OMe; CH/CF; N], the IC50 under setting [4] was under 500 nM.
On to `CC#CCN1C(=O)c2ccccc2Sc2cc(Nc3ncc(C)cc3F)ccc21` [10-(But-2-yn-1-yl)-7-((3-fluoro-5-methylpyridin-2-yl)amino)dibenzo[b,f][1,4]thiazepin-11 (10H)-one], for which, under setting [8], the IC50 was under 500 nM.
As for `CC#CCN1C(=O)c2ccccc2Cc2cc(NC34CC(OC)(C3)C4)ccc21`, the IC50 under setting [3] is under 500 nM.
Consider `CC#CCN1C(=O)c2ccc(Cl)cc2Sc2cc(NC(=O)N3CCC3)ccc21`, for which the IC50 (Table 1, HCT116, 72 hours, read-out: Activity) is under 500 nM.
As for `CC#CCN1C(=O)c2ccc(Cl)cc2Sc2cc(NC(=O)C=CCO)ccc21` [—CH2CCMe; CH═CHCH2OH; CCI/CH; CH], under setting [4], the IC50 was under 500 nM.
As for `CC#CCN1C(=O)c2ccccc2Cc2cc(NC(=O)CC3COC3)ccc21` [Table 9: —CH2CCMe; (oxetan-3-yl)CH2; CH2], under setting [6], the IC50 is under 500 nM.
With `O=C(Nc1ccc2c(c1)Sc1ccc(F)cc1C(=O)N2CC#CC1CC1)C1CC2(CC(O)C2)C1` (stereo not shown), under setting [4], the IC50 was under 500 nM.
Take `CC#CCN1C(=O)c2ccccc2Sc2cc(NC(=O)N[C@H]3C[C@@H](OC)C3)cnc21` [Table 3: —CH2CCMe; cis-3-MeOcBu; CH/N]: the IC50 under setting [1] was under 500 nM.
Take `CC#CCN1C(=O)c2ccccc2Sc2cc(NC(=S)Nc3ccc(OC(F)F)cc3)cnc21` [Table 4: —CH2CCMe; 4-F2HCOPh; N]: the IC50 under setting [2] is under 500 nM.
On to `COCC1CC(C(=O)Nc2ccc3c(c2)Sc2ccccc2C(=O)N3CC#CC(F)(F)F)C1` (stereo not shown) [—CH2CCCF3; 3-MeOCH2-cBu; CH/CH; CH], for which, under setting [4], the IC50 is under 500 nM.
For `C#Cc1ccc(C(=O)Nc2ccc3c(c2)Sc2ccccc2C(=O)N3CCOC)cc1` [—(CH2)2OMe; 4-HCCPh; CH/CH; S], the IC50 under setting [9] is 500 to 1000 nM.
As to `O=C1c2cc(F)ccc2Sc2cc(NC(=O)C34CC(O)(C3)C4)cnc2N1CC#CC1CC1`, the IC50 under setting [4] is under 500 nM.
As to `CC#CCN1C(=O)c2ccccc2Sc2cc(NC(=O)C3CC4(CC(=O)C4)C3)ccc21`, the IC50 under setting [4] was under 500 nM.
`CC#CCN1C(=O)c2ccccc2Sc2cc(NC3CCOC3)cnc21` (stereo not shown) [11-(But-2-yn-1-yl)-3-((tetrahydrofuran-3-yl)amino)benzo[f]pyrido[3,2-b][1,4]thiazepin-10(11H)-one]: the IC50 under setting [7] is under 500 nM.
In the case of `CC1c2ccccc2C(=O)N(CC#CC2CC2)c2ccc(NC(=O)C3COC3)cc21` (stereo not shown) [Table 9: —CH2CC^cPr; oxetan-3-yl; CHMe], under setting [6], the IC50 was under 500 nM.
Still for that read-out and setting: the same measure for `CC#CCN1C(=O)c2ccccc2C(C)c2cc(NC(=O)[C@@H]3C[C@H]3COC)ccc21` (relative stereo): under 500 nM.
In the case of `CC#CCN1C(=O)c2ccccc2Cc2cc(NC3CC(CO)C3)ccc21` (stereo not shown), the IC50 under setting [3] was under 500 nM.
For `C#CCN1C(=O)c2ccc(Cl)cc2Sc2cc(NC(=O)C3CC4(CC(=NOC)C4)C3)cnc21` (stereo not shown), under setting [4], the IC50 is under 500 nM.
On to `CC#CCN1C(=O)c2ccccc2C(C)c2cc(NC(=O)c3ccc4oc(=O)n(C)c4c3)ccc21` (stereo not shown) [N-(5-(But-2-yn-1-yl)-11-methyl-6-oxo-6,11-dihydro-5H-dibenzo[b,e]azepin-2-yl)-3-methyl-2-oxo-2,3-dihydrobenzo[d]oxazole-5-carboxamide], for which, for the setting “Homo sapiens, HCT-116, Table 9, HCT116, 72 hours, read-out: Activity”, the IC50 was under 500 nM.
